# Assay results published in paper PMC10977428 (Journal of Parkinson's Disease, 2024).
# Where two headings read alike, the source gives them in different places.
# Experiments:
# [1] = tested on: PD features; conditions: double blind clinical studies; cited from earlier work
# [2] = tested on: models of inherited or sporadic Parkinson’s-like disease; conditions: once daily oral administration; cited from earlier work
# [3] = tested on: older healthy adults or participants with PD; assay: Safety and tolerability; assay type: in vivo, human
# [4] = tested on: c-Abl activation; conditions: once-daily oral administration; cited from earlier work
# [5] = Single ascending dose; assay type: in vivo, human; conditions: for dose linearity of single dose PK: Cmax and AUC0 - inf; for AUC0 - ∞/D / Cmax/D / tlag: fed, older healthy adults N = 6, mean (SD)
# [6] = 7-day MAD plasma pharmacokinetics, participants with PD; assay type: in vivo; conditions: human, oral
# [7] = tested on: rodent and non-human primates; conditions: daily dosing between 13 and 39 weeks duration; cited from earlier work
# [8] = assay type: in vivo, human; conditions: for concentration at 6 days: human, cerebrospinal fluid, oral
# [9] = 7-day multiple ascending dose; assay type: in vivo, human; conditions: for accumulation of exposures at steady-state: once daily 7 days; for AUC0 - ∞/D / Cmax/D: HV N = 6, mean (SD)
# [10] = tested on: participants with mild-to-moderate PD; assay: Functional assessments of motor and non-motor features of PD; assay type: in vivo, human; conditions: baseline to Day 7
# [11] = SAD 12.5 mg single oral dose, plasma
# [12] = SAD 25.0 mg single oral dose, plasma
# [13] = SAD 37.5 mg single oral dose, plasma
# [14] = SAD 75.0 mg single oral dose, plasma
# [15] = SAD 100 mg single oral dose, plasma
# [16] = SAD 125 mg single oral dose, plasma
# [17] = SAD 175 mg single oral dose, plasma
# [18] = SAD 250 mg single oral dose, plasma
# [19] = SAD 325 mg single oral dose, plasma
# [20] = DAY 1 of 7-day dosing, 12.5 mg once daily, plasma
# [21] = DAY 1 of 7-day dosing, 25.0 mg once daily, plasma
# [22] = DAY 1 of 7-day dosing, 200 mg once daily, plasma
# [23] = DAY 7 of 7-day dosing, 25.0 mg once daily, plasma
# [24] = DAY 7 of 7-day dosing, 200.0 mg once daily, plasma
structure (smiles),measurement,setting,value
Cc1cn(-c2cc(NC(=O)c3ccc(C)c(Nc4nccc(-c5cccnc5)n4)c3)cc(C(F)(F)F)c2)cn1 [nilotinib],improvement of PD features,[1],failure
Cc1ccc(NC(=O)c2ccc(CN3CCN(C)CC3)cc2)cc1Nc1nccc(-c2cncc(-c3oncc3C)c2)n1 [Risvodetinib],effect in models of inherited or sporadic Parkinson’s-like disease,[2],therapeutically effective
same,Severity of treatment-related adverse event: Dermatitis,"[3]; 50 mg, 7-day, 1x/day, PD patients",Mild
same,Severity of treatment-related adverse event: Palpitations,"[3]; 75 mg, Single Dose, healthy subjects",Mild
same,Severity of treatment-related adverse event: Constipation,"[3]; 100 mg, 7-day, 1x/day, PD patients",Mild
same,Severity of treatment-related adverse event: Elevated Lipase,"[3]; 200 mg, 7-day, 1x/day, healthy subjects",Mild
same,Severity of treatment-related adverse event: Diarrhea,"[3]; 325 mg, Single Dose, healthy subjects",Mild
same,deaths and serious adverse events,[3]; 94 healthy subjects and 14 participants with PD,"no deaths, no serious adverse events"
same,adverse events deemed possibly or probably related to the active drug,"[3]; among all 36 recorded adverse events, SAD, MAD and MAD-PD, all mild",11
same,QTcF prolongation,[3]; any dose or dose duration,No participants displayed evidence of QTcF prolongation
same,"orthostatic hypotension, heart rate, heart rhythm, blood pressure",[3]; participants with PD,did not exacerbate pre-existing orthostatic hypotension
same,effect in the MPTP acute toxicity model,[4],blocked disease initiation and progression
same,dose linearity of single dose PK,[5],approximately linear between 12.5 mg and 175 mg
same,dose linearity of single dose PK,[5]; listed as risvodetinib (IkT-148009),approximately linear between 12.5 mg and 200 mg
same,AUC0 - ∞/D,[5]; [11],758 (345) h*ng/mL/mg
same,Cmax/D,[5]; [11],35.8 (26.6) ng/mL/mg
same,tlag,[5]; [11],1.09 (1.48) h
same,AUC0 - ∞/D,[5]; [12],936 (314) h*ng/mL/mg
same,Cmax/D,[5]; [12],37.8 (13.9) ng/mL/mg
same,tlag,[5]; [12],0.614 (0.367) h
same,AUC0 - ∞/D,[5]; [13],823 (776) h*ng/mL/mg
same,Cmax/D,[5]; [13],36.0 (21.2) ng/mL/mg
same,tlag,[5]; [13],0.642 (0.393) h
same,AUC0 - ∞/D,[5]; [14],802 (342) h*ng/mL/mg
same,Cmax/D,[5]; [14],36.6 (13.6) ng/mL/mg
same,tlag,[5]; [14],0.342 (0.143) h
same,AUC0 - ∞/D,[5]; [15],1150 (285) h*ng/mL/mg
same,Cmax/D,[5]; [15],53.2 (12.8) ng/mL/mg
same,tlag,[5]; [15],0.414 (0.350) h
same,AUC0 - ∞/D,[5]; [16],879 (370) h*ng/mL/mg
same,Cmax/D,[5]; [16],42.3 (10.1) ng/mL/mg
same,tlag,[5]; [16],0.306 (0.284) h
same,AUC0 - ∞/D,[5]; [17],982 (359) h*ng/mL/mg
same,Cmax/D,[5]; [17],35.0 (13.7) ng/mL/mg
same,tlag,[5]; [17],0.0944 (0.146) h
same,AUC0 - ∞/D,[5]; [18],858 (417) h*ng/mL/mg
same,Cmax/D,[5]; [18],28.9 (6.55) ng/mL/mg
same,tlag,[5]; [18],0.547 (0.507) h
same,AUC0 - ∞/D,[5]; [19],749 (385) h*ng/mL/mg
same,Cmax/D,[5]; [19],22.5 (9.71) ng/mL/mg
same,tlag,[5]; [19],0.186 (0.250) h
same,half-life,"[5]; human, plasma, oral",24 to 39 h
same,AUC(0-inf),[6]; 50 mg,24.5 µg·h/mL
same,AUC(0-inf),[6]; 100 mg,68.7 µg·h/mL
same,histopathology in the pancreas,[7],no histopathology in the pancreas was observed
same,concentration at 6 days,[8]; 25 mg,4.51 ng/mL
same,concentration at 6 days,[8]; 50 mg,3.07 ng/mL
same,concentration at 6 days,[8]; 100 mg,8.42 ng/mL
same,detection in cerebrospinal fluid,"[8]; pre-dose on the last dosing day of a 7-day dosing study, older healthy adults and PD participants",detected
same,accumulation of exposures at steady-state,"[9]; 100 mg or 200 mg, Day 7 comparable to Day 1",little or no accumulation
same,AUC0 - ∞/D,[9]; [20],706 (424) h*ng/mL/mg
same,Cmax/D,[9]; [20],43.0 (23.1) ng/mL/mg
same,AUC0 - ∞/D,[9]; [21],780 (305) h*ng/mL/mg
same,Cmax/D,[9]; [21],41.5 (22.3) ng/mL/mg
same,AUC0 - ∞/D,[9]; [22],759 (263) h*ng/mL/mg
same,Cmax/D,[9]; [22],32.5 (6.4) ng/mL/mg
same,AUC0 - ∞/D,[9]; [23],1020 (370) h*ng/mL/mg
same,Cmax/D,[9]; [23],70.9 (32.3) ng/mL/mg
same,AUC0 - ∞/D,[9]; [24],486 (116) h*ng/mL/mg
same,Cmax/D,[9]; [24],29.8 (5.6) ng/mL/mg
same,time to steady-state,[9]; doses > 50 mg once daily (higher doses),within one day
same,accumulation of exposures at steady-state,[9]; doses less than or equal to 50 mg,approximately two-fold
same,time to steady-state,[9]; doses ≤50 mg once daily,≤ 5 days
same,AUC(0-inf),"[9]; human, plasma, oral, 12.5 mg",8.83 µg·h/mL
same,AUC(0-inf),"[9]; human, plasma, oral, 25 mg",19.5 µg·h/mL
same,AUC(0-inf),"[9]; human, plasma, oral, 200 mg",152 µg·h/mL
same,half-life,"[9]; human, plasma, oral, half-life, overall statement in discussion",~24 h
same,increase of mean score for MDS-UPDRS Part III,[10]; 50 mg once daily 7 days,6.2 (±9.50) points
same,increase of mean score for MDS-UPDRS Part III,[10]; 100 mg once daily 7 days,7.4 (±14.1) points
